Experiments:
Format in all cases: functional
Microbotryum violaceum [1] = assay: Antimicrobial activity against Microbotryum violaceum at 1 mg by agar diffusion test; conditions: read-out: IZ
Mycotypha microspora [2] = assay: Antimicrobial activity against Mycotypha microspora at 1 mg by agar diffusion test; conditions: read-out: IZ
Priestia megaterium [3] = assay: Antimicrobial activity against Bacillus megaterium at 1 mg by agar diffusion test; conditions: read-out: IZ
Escherichia coli [4] = assay: Antimicrobial activity against Escherichia coli at 1 mg by agar diffusion test; conditions: read-out: IZ
[Chlorella] fusca [5] = Antimicrobial activity against 'Chlorella' fusca at 1 mg by agar diffusion test; conditions: Scenedesmus fuscus; read-out: IZ
Medicago sativa = assay: Herbicidal activity against Medicago sativa (alfalfa) assessed as inhibition of seedlings growth after 5 days
[6] = system: Aspergillus pseudoglaucus; assay: Antimicrobial activity against Eurotium repens at 1 mg by agar diffusion test; conditions: read-out: IZ
Lepidium sativum = assay: Herbicidal activity against Lepidium sativum assessed as inhibition of seedlings growth after 2 days
Priestia megaterium [7] = assay: Antimicrobial activity against Bacillus megaterium at 0.9 mg by agar diffusion test; conditions: read-out: IZ
[8] = system: Aspergillus pseudoglaucus; assay: Antimicrobial activity against Eurotium repens at 0.9 mg by agar diffusion test; conditions: read-out: IZ
Escherichia coli [9] = assay: Antimicrobial activity against Escherichia coli at 0.9 mg by agar diffusion test; conditions: read-out: IZ
[Chlorella] fusca [10] = Antimicrobial activity against 'Chlorella' fusca at 0.9 mg by agar diffusion test; conditions: Scenedesmus fuscus; read-out: IZ
Microbotryum violaceum [11] = assay: Antimicrobial activity against Microbotryum violaceum at 0.9 mg by agar diffusion test; conditions: read-out: IZ
Mycotypha microspora [12] = assay: Antimicrobial activity against Mycotypha microspora at 0.9 mg by agar diffusion test; conditions: read-out: IZ
Priestia megaterium [13] = assay: Antimicrobial activity against Bacillus megaterium at 1.2 mg by agar diffusion test; conditions: read-out: IZ
[14] = system: Aspergillus pseudoglaucus; assay: Antimicrobial activity against Eurotium repens at 1.2 mg by agar diffusion test; conditions: read-out: IZ
[Chlorella] fusca [15] = Antimicrobial activity against 'Chlorella' fusca at 1.2 mg by agar diffusion test; conditions: Scenedesmus fuscus; read-out: IZ
Microbotryum violaceum [16] = assay: Antimicrobial activity against Microbotryum violaceum at 1.2 mg by agar diffusion test; conditions: read-out: IZ
Mycotypha microspora [17] = assay: Antimicrobial activity against Mycotypha microspora at 1.2 mg by agar diffusion test; conditions: read-out: IZ
Escherichia coli [18] = assay: Antimicrobial activity against Escherichia coli at 1.2 mg by agar diffusion test; conditions: read-out: IZ

Compound `C/C=C/C1=C(Cl)C(=O)[C@@H](Cl)[C@@]1(O)C(=O)OC` [(+)-CRYPTOSPORIPSIN] has a zone of inhibition at 1000 µg/disc (Microbotryum violaceum [1]) of 15 mm, a zone of inhibition at 1000 µg/disc (Mycotypha microspora [2]) of 17 mm and a zone of inhibition at 1000 µg/disc (Priestia megaterium [3]) of 5 mm. The zone of inhibition at 1000 µg/disc (Escherichia coli [4]) was 3 mm, the zone of inhibition at 1000 µg/disc ([Chlorella] fusca [5]) was 0 mm and the “growth inhibition (GI)” value (Medicago sativa) was 100%. For the same compound, the zone of inhibition at 1000 µg/disc [6] was 16 mm and the “growth inhibition (GI)” value (Lepidium sativum) was 100%.

With `C[C@@H]1Cc2cccc(O)c2C(=O)O1` [(-)-(R)-MELLEIN] the zone of inhibition at 900 µg/disc (Priestia megaterium [7]) was 2 mm, the zone of inhibition at 900 µg/disc [8] was 6 mm and the zone of inhibition at 900 µg/disc (Escherichia coli [9]) was 2 mm. The zone of inhibition at 900 µg/disc ([Chlorella] fusca [10]) was 14 mm, the zone of inhibition at 900 µg/disc (Microbotryum violaceum [11]) was 8 mm and the “growth inhibition (GI)” value (Medicago sativa) was 100%. For the same compound, the zone of inhibition at 900 µg/disc (Mycotypha microspora [12]) was 0 mm and the “growth inhibition (GI)” value (Lepidium sativum) was 100%.

Compound `C/C=C(\Cl)C1=CC(=O)[C@@]23C[C@@H]2C(C)(C)O[C@@]3(O)C1=O` [(-)-MYCORRHIZIN A] has a zone of inhibition at 1200 µg/disc (Priestia megaterium [13]) of 8 mm, a zone of inhibition at 1200 µg/disc [14] of 14 mm and a zone of inhibition at 1200 µg/disc ([Chlorella] fusca [15]) of 3 mm. For the same compound, the zone of inhibition at 1200 µg/disc (Microbotryum violaceum [16]) was 14 mm, the zone of inhibition at 1200 µg/disc (Mycotypha microspora [17]) was 10 mm and the “growth inhibition (GI)” value (Medicago sativa) was 100%. The “growth inhibition (GI)” value (Lepidium sativum) was 100% and the zone of inhibition at 1200 µg/disc (Escherichia coli [18]) was 3 mm.

`C=C1C(=O)O[C@H]2C(=O)O[C@H](CC)[C@@H]12` [4-EPI-ETHIOSOLIDE] was tested, and the zone of inhibition at 1000 µg/disc (Microbotryum violaceum [1]) was 10 mm, the zone of inhibition at 1000 µg/disc (Mycotypha microspora [2]) was 6 mm and the zone of inhibition at 1000 µg/disc (Priestia megaterium [3]) was 5 mm. For the same compound, the zone of inhibition at 1000 µg/disc (Escherichia coli [4]) was 5 mm, the zone of inhibition at 1000 µg/disc ([Chlorella] fusca [5]) was 3 mm and the “growth inhibition (GI)” value (Medicago sativa) was 100%. The “growth inhibition (GI)” value (Lepidium sativum) was 100%.

Reference: ChEMBL document CHEMBL3046792, “Biologically active secondary metabolites of endophytic Pezicula species” (1995)
